Assay results as given in patent publication US9833497B2, “Human originated EGF domain proteins and use of the same” (CHENGDU SOURCEBIO LIMITED-LIABILITY COMPANY, priority 2013, dated 2017).

Key:
Format in all cases: cell-based
[1] = tested on: Aeromonas hydrophila; assay: MIC against Gram-negative bacteria: Aeromonas hydrophila; settings: 5×10^5 CFU/mL
In short: (§1)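 MIC = lowest concentration of recombinant protein showing no growth. Test proteins: purified human-derived EGF domain proteins, two-fold dilution series, three wells per concentration; inoculum 5×10^5 CFU/mL in LB; incubation 37° C with shaking at 175 rpm.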

[2] = tested on: Proteus vulgaris; assay: MIC against Gram-negative bacteria: Proteus vulgaris; settings: 5×10^5 CFU/mL
In short: as §1

[3] = tested on: Moraxella catarrhalis; assay: MIC against Gram-negative bacteria: Moraxella catarrhalis; settings: 5×10^5 CFU/mL
In short: as §1

[4] = tested on: E. coli BL21; assay: MIC against Gram-negative bacteria: E. coli BL21; settings: 5×10^5 CFU/mL
In short: as §1

[5] = tested on: Klebsiella pneumonia; assay: MIC against Gram-negative bacteria: Klebsiella pneumonia; settings: 5×10^5 CFU/mL
In short: as §1

[6] = tested on: Citrobacter diversus; assay: MIC against Gram-negative bacteria: Citrobacter diversus; settings: 5×10^5 CFU/mL
In short: as §1

[7] = tested on: Serratia marcescens; assay: MIC against Gram-negative bacteria: Serratia marcescens; settings: 5×10^5 CFU/mL
In short: as §1

[8] = tested on: Proteus mirabilis; assay: MIC against Gram-negative bacteria: Proteus mirabilis; settings: 5×10^5 CFU/mL
In short: as §1

[9] = tested on: E. coli DH5α; assay: Antibacterial activity: MIC and growth curve against E. coli DH5α in 96-well plate; settings: minimal inhibitory concentration against E. coli DH5α; 96-well plate, 5×10^5 CFU/mL, 37° C., judged after 8 h
In short: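 MIC taken as lowest protein level with no bacterial growth, tracked by A600 every 30 min during 37 °C, 175 rpm culture. Two-fold protein series 50-12.5 μg/mL final, triplicate wells, against 5×10^5 CFU/mL of LB-washed mid-log cells.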

[10] = tested on: Enterobacter cloacae; assay: MIC against Gram-negative bacteria: Enterobacter cloacae; settings: 5×10^5 CFU/mL
In short: as §1

[11] = tested on: Pseudomonas aeruginosa; assay: MIC against Gram-negative bacteria: Pseudomonas aeruginosa; settings: 5×10^5 CFU/mL
In short: as §1

[12] = 10 h cultivation at 37° C., two-fold serial dilution
[13] = A. hydrophila, 10 h cultivation at 37° C.
[14] = P. vulgaris, 10 h cultivation at 37° C.
[15] = M. catarrhalis, 10 h cultivation at 37° C.
[16] = E. coli BL21, 10 h cultivation at 37° C.
[17] = K. pneumonia, 10 h cultivation at 37° C.
[18] = C. diversus, 10 h cultivation at 37° C.
[19] = S. marcescens, 10 h cultivation at 37° C.
[20] = P. mirabilis, 10 h cultivation at 37° C.
[21] = E. cloacae, 10 h cultivation at 37° C.
[22] = P. aeruginosa, 10 h cultivation at 37° C.

Substance: PRT1163 (SVNSCAVNPCLHNGECVADNTSRGYHCRCPPSWQGDDCS; listed as Homo sapiens)
- MIC A. hydrophila [1, 12]: 12.5 µg/mL
- MIC P. vulgaris [2, 12]: 12.5 µg/mL
- MIC M. catarrhalis [3, 12]: 12.5 µg/mL
- MIC E. coli BL21 [4, 12]: 25 µg/mL
- MIC K. pneumonia [5, 12]: 25 µg/mL
- MIC C. diversus [6, 12]: 12.5 µg/mL
- MIC S. marcescens [7, 12]: 25 µg/mL
- MIC P. mirabilis [8, 12]: 12.5 µg/mL
- MIC [9]: 12.5 µg/mL
- MIC E. cloacae [10, 12]: 12.5 µg/mL
- MIC P. aeruginosa [11, 12]: 12.5 µg/mL

Substance: PRT707 (GKTVCEDFCQNGGTCIVTAGNQPYCHCQPEYTGDRCQ; listed as Homo sapiens)
- MIC A. hydrophila ([1]; 96-well plate, 37° C., 10 h): 25 µg/mL
- MIC P. vulgaris ([2]; 96-well plate, 37° C., 10 h): 25 µg/mL
- MIC M. catarrhalis ([3]; 96-well plate, 37° C., 10 h): 12.5 µg/mL
- MIC E. coli BL21 ([4]; 96-well plate, 37° C., 10 h): 25 µg/mL
- MIC K. pneumonia ([5]; 96-well plate, 37° C., 10 h): 12.5 µg/mL
- MIC C. diversus ([6]; 96-well plate, 37° C., 10 h): 12.5 µg/mL
- MIC S. marcescens ([7]; 96-well plate, 37° C., 10 h): 12.5 µg/mL
- MIC P. mirabilis ([8]; 96-well plate, 37° C., 10 h): 12.5 µg/mL
- MIC [9]: 50 µg/mL
- MIC E. cloacae ([10]; 96-well plate, 37° C., 10 h): 12.5 µg/mL
- MIC P. aeruginosa ([11]; 96-well plate, 37° C., 10 h): 50 µg/mL

Substance: PRT826 (FGVGCEHTCSCRNGGLCHASNGSCSCGLGWTGRHCE; listed as Homo sapiens)
- MIC (μg/mL) A. hydrophila [1, 13]: 12.5 µg/mL
- MIC (μg/mL) P. vulgaris [2, 14]: 12.5 µg/mL
- MIC (μg/mL) M. catarrhalis [3, 15]: 25 µg/mL
- MIC (μg/mL) E. coli BL21 [4, 16]: 50 µg/mL
- MIC (μg/mL) K. pneumonia [5, 17]: 100 µg/mL
- MIC (μg/mL) C. diversus [6, 18]: 12.5 µg/mL
- MIC (μg/mL) S. marcescens [7, 19]: 12.5 µg/mL
- MIC (μg/mL) P. mirabilis [8, 20]: 12.5 µg/mL
- MIC [9]: 12.5 µg/mL
- MIC (μg/mL) E. cloacae [10, 21]: 50 µg/mL
- MIC (μg/mL) P. aeruginosa [11, 22]: 25 µg/mL

Substance: PRT1098 (DIDNCQSHQCANGATCISHTNGYSCLCFGNFTGKFCR; listed as Homo sapiens)
- MIC A. hydrophila [1, 12]: 25 µg/mL
- MIC P. vulgaris [2, 12]: 25 µg/mL
- MIC M. catarrhalis [3, 12]: 25 µg/mL
- MIC E. coli BL21 [4, 12]: 12.5 µg/mL
- MIC K. pneumonia [5, 12]: 12.5 µg/mL
- MIC C. diversus [6, 12]: 12.5 µg/mL
- MIC S. marcescens [7, 12]: 50 µg/mL
- MIC P. mirabilis [8, 12]: 12.5 µg/mL
- MIC [9]: 12.5 µg/mL
- MIC E. cloacae [10, 12]: 12.5 µg/mL
- MIC P. aeruginosa [11, 12]: 12.5 µg/mL

Substance: PRT1381 (GMRSCPRGCSQRGRCENGRCVCNPGYTGEDC; listed as Homo sapiens)
- MIC against A. hydrophila ([1]; Aeromonas hydrophila, 10 h cultivation at 37° C.): 50 µg/mL
- MIC against P. vulgaris ([2]; Proteus vulgaris, 10 h cultivation at 37° C.): 50 µg/mL
- MIC against M. catarrhalis ([3]; Moraxella catarrhalis, 10 h cultivation at 37° C.): 12.5 µg/mL
- MIC against E. coli BL21 [4, 16]: 25 µg/mL
- MIC against K. pneumonia ([5]; Klebsiella pneumonia, 10 h cultivation at 37° C.): 25 µg/mL
- MIC against C. diversus ([6]; Citrobacter diversus, 10 h cultivation at 37° C.): 25 µg/mL
- MIC against S. marcescens ([7]; Serratia marcescens, 10 h cultivation at 37° C.): 25 µg/mL
- MIC against P. mirabilis ([8]; Proteus mirabilis, 10 h cultivation at 37° C.): 25 µg/mL
- MIC [9]: 12.5 µg/mL
- MIC against E. cloacae ([10]; Enterobacter cloacae, 10 h cultivation at 37° C.): 12.5 µg/mL
- MIC against P. aeruginosa ([11]; Pseudomonas aeruginosa, 10 h cultivation at 37° C.): 50 µg/mL

Substance: PRT626 (CDCQSAGSLHLQCDDTGTCACKPTVTGWKCDRCLPGFHSLSEGGCRP; listed as Homo sapiens)
- MIC A. hydrophila ([1]; 96-well plate, 37° C., 10 h): 50 µg/mL
- MIC P. vulgaris ([2]; 96-well plate, 37° C., 10 h): 50 µg/mL
- MIC M. catarrhalis ([3]; 96-well plate, 37° C., 10 h): 12.5 µg/mL
- MIC E. coli BL21 ([4]; 96-well plate, 37° C., 10 h): 50 µg/mL
- MIC K. pneumonia ([5]; 96-well plate, 37° C., 10 h): 12.5 µg/mL
- MIC C. diversus ([6]; 96-well plate, 37° C., 10 h): 25 µg/mL
- MIC S. marcescens ([7]; 96-well plate, 37° C., 10 h): 25 µg/mL
- MIC P. mirabilis ([8]; 96-well plate, 37° C., 10 h): 25 µg/mL
- MIC [9]: 25 µg/mL
- MIC E. cloacae ([10]; 96-well plate, 37° C., 10 h): 25 µg/mL
- MIC P. aeruginosa ([11]; 96-well plate, 37° C., 10 h): 25 µg/mL

Substance: PRT834 (DCADSPCCQQVCTNNPGGYECGCYAGYRLSADGCGCE; listed as Homo sapiens)
- MIC (μg/mL) A. hydrophila [1, 13]: 25 µg/mL
- MIC (μg/mL) P. vulgaris [2, 14]: 12.5 µg/mL
- MIC (μg/mL) M. catarrhalis [3, 15]: 25 µg/mL
- MIC (μg/mL) E. coli BL21 [4, 16]: 25 µg/mL
- MIC (μg/mL) K. pneumonia [5, 17]: 25 µg/mL
- MIC (μg/mL) C. diversus [6, 18]: 12.5 µg/mL
- MIC (μg/mL) S. marcescens [7, 19]: 25 µg/mL
- MIC (μg/mL) P. mirabilis [8, 20]: 50 µg/mL
- MIC [9]: 50 µg/mL
- MIC (μg/mL) E. cloacae [10, 21]: 50 µg/mL
- MIC (μg/mL) P. aeruginosa [11, 22]: 12.5 µg/mL

Substance: PRT617 (CNCNSKGSLSARCDNSGRCSCKPGVTGARCDRCLPGFHMLTDAGCTQ; listed as Homo sapiens)
- MIC A. hydrophila ([1]; 96-well plate, 37° C., 10 h): 12.5 µg/mL
- MIC P. vulgaris ([2]; 96-well plate, 37° C., 10 h): 12.5 µg/mL
- MIC M. catarrhalis ([3]; 96-well plate, 37° C., 10 h): 12.5 µg/mL
- MIC E. coli BL21 ([4]; 96-well plate, 37° C., 10 h): 12.5 µg/mL
- MIC K. pneumonia ([5]; 96-well plate, 37° C., 10 h): 12.5 µg/mL
- MIC C. diversus ([6]; 96-well plate, 37° C., 10 h): 25 µg/mL
- MIC S. marcescens ([7]; 96-well plate, 37° C., 10 h): 25 µg/mL
- MIC P. mirabilis ([8]; 96-well plate, 37° C., 10 h): 25 µg/mL
- MIC [9]: 25 µg/mL
- MIC E. cloacae ([10]; 96-well plate, 37° C., 10 h): 25 µg/mL
- MIC P. aeruginosa ([11]; 96-well plate, 37° C., 10 h): 25 µg/mL

Substance: PRT533 (GTINSNLGYCQCKLHVEGPTCSRCKLLYWNLDKENPSGCSE; listed as Homo sapiens)
- MIC against A. hydrophila ([1]; 96-well plate, 37° C., 10 h): 25 µg/mL
- MIC against P. vulgaris ([2]; 96-well plate, 37° C., 10 h): 25 µg/mL
- MIC against M. catarrhalis ([3]; 96-well plate, 37° C., 10 h): 25 µg/mL
- MIC against E. coli BL21 ([4]; 96-well plate, 37° C., 10 h): 25 µg/mL
- MIC against K. pneumonia ([5]; 96-well plate, 37° C., 10 h): 25 µg/mL
- MIC against C. diversus ([6]; 96-well plate, 37° C., 10 h): 12.5 µg/mL
- MIC against S. marcescens ([7]; 96-well plate, 37° C., 10 h): 12.5 µg/mL
- MIC against P. mirabilis ([8]; 96-well plate, 37° C., 10 h): 50 µg/mL
- MIC [9]: 50 µg/mL
- MIC against E. cloacae ([10]; 96-well plate, 37° C., 10 h): 50 µg/mL
- MIC against P. aeruginosa ([11]; 96-well plate, 37° C., 10 h): 100 µg/mL

Substance: PRT29 (PCNCDVHKGFDPNCNKTNGQCHCKEFHYRPRGSDSCLP; listed as Homo sapiens)
- MIC (μg/mL) A. hydrophila ([1]; Aeromonas hydrophila, 96-well plate, 37° C., 10 h): 25 µg/mL
- MIC (μg/mL) P. vulgaris ([2]; Proteus vulgaris, 96-well plate, 37° C., 10 h): 50 µg/mL
- MIC (μg/mL) M. catarrhalis ([3]; Moraxella catarrhalis, 96-well plate, 37° C., 10 h): 12.5 µg/mL
- MIC (μg/mL) E. coli BL21 ([4]; E. coli BL21, 96-well plate, 37° C., 10 h): 25 µg/mL
- MIC (μg/mL) K. pneumonia ([5]; Klebsiella pneumonia, 96-well plate, 37° C., 10 h): 25 µg/mL
- MIC (μg/mL) C. diversus ([6]; Citrobacter diversus, 96-well plate, 37° C., 10 h): 25 µg/mL
- MIC (μg/mL) S. marcescens ([7]; Serratia marcescens, 96-well plate, 37° C., 10 h): 12.5 µg/mL
- MIC (μg/mL) P. mirabilis ([8]; Proteus mirabilis, 96-well plate, 37° C., 10 h): 25 µg/mL
- MIC [9]: 25 µg/mL
- MIC (μg/mL) E. cloacae ([10]; Enterobacter cloacae, 96-well plate, 37° C., 10 h): 50 µg/mL
- MIC (μg/mL) P. aeruginosa ([11]; Pseudomonas aeruginosa, 96-well plate, 37° C., 10 h): 12.5 µg/mL
